Results on eight compounds are retold here after patent publication US8492387B2, “2-aminoimidazole beta-secretase inhibitors for the treatment of alzheimer's disease” (Merck, Sharp & Dohme, Corp., priority 2008, dated 2013).

In the test the target is BACE 1 (beta-secretase enzyme) (Homo sapiens (Human), UniProt P56817). The test is described as follows: ECL Assay (homogeneous end point electrochemiluminescence assay with biotinylated BACE substrate). As to conditions: soluble human enzyme, pH 6.5, rt. It counts as biochemical. The procedure:
Enzyme inhibition is determined as follows.
ECL Assay: A homogeneous end point electrochemiluminescence (ECL) assay is performed using a biotinylated BACE substrate. The Km of the substrate is approximated at 50 μM. A typical reaction contains approximately 0.6 nM enzyme, 0.25 μM of the substrate, and buffer (50 mM Pipes, pH 6.5, 0.1 mg/ml BSA, 0.2% CHAPS, 15 mM EDTA and 1 mM deferoxamine) in a total reaction volume of 100 μl. The reaction proceeds for 1-2 hrs and is then stopped by the addition of 150 μL of a quench cocktail solution ([…], pH 8.0, 50 μL INC buffer (2% BSA, 0.2% Tween-20 and 0.05% sodium azide diluted in phosphate buffered saline (PBS) plus 75 μL, PBS), containing streptavadin coated magnetic beads and ruthenylated antibody which specifically recognizes the C-terminal residue of the product. The samples are subjected to M-384 (Igen Inc., Gaithersburg, Md.) analysis. Under these conditions, less than 10% of substrate is processed by BACE 1. The enzyme used in these studies is soluble (transmembrane domain and cytoplasmic extension excluded) human protein produced in a baculovirus expression system. To measure the inhibitory potency for compounds, 10 concentrations of inhibitors are prepared starting from 200 μM with three fold series dilution. Solutions of the inhibitor in DMSO are included in the reaction mixture (final DMSO concentration is 10%). All experiments are conducted at rt using the standard reaction conditions described above. To determine the IC50 of the compound, a four parameter equation is used for curve fitting. The errors in reproducing the dissociation constants are typically less than two-fold.

Sequence of BACE 1 (beta-secretase enzyme) (P56817 46-457): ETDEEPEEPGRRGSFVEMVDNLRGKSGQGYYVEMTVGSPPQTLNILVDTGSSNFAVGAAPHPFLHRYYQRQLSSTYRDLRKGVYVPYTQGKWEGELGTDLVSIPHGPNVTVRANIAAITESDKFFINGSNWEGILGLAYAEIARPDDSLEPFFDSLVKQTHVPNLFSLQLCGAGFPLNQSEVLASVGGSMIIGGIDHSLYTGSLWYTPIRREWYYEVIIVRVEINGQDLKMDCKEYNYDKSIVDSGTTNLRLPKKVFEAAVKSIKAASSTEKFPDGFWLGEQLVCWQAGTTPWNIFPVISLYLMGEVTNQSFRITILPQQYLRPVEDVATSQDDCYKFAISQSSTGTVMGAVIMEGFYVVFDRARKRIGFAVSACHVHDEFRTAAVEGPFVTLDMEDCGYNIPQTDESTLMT

For the compound `COc1ccc([C@H](Cc2ccc(C(F)(F)F)cc2)c2nc(N)[nH]c2C(O)c2ccccc2)cc1` (stereo partly drawn) [Example 2, (2-amino-4-{(1S)-1-(4-methoxyphenyl)-2-[4-(trifluoromethyl)phenyl]ethyl}-1H-imidazole-5-yl) (phenyl)methanol], the half-inhibitory concentration (IC50) – broadly, the concentration needed to halve the response being measured – was found to be 5 µM. The same measure for `COc1ccc(C(Cc2cccc(-c3ccc(C(F)(F)F)cc3Cl)c2)c2cn(C)c(N)n2)cc1` (centres unmarked) [Example 34, 4-[2-[2′-chloro-4′-(trifluoromethyl)biphenyl-3-yl]-1-(4-methoxyphenyl)ethyl]-1-methyl-1H-imidazol-2-amine]: 11 µM; for `COc1ccc(C2(c3cn(C)c(N)n3)CCCCC2)cc1` [Example 41, 4-[1-(4-methoxyphenyl)cyclohexyl]-1-methyl-1H-imidazol-2-amine]: 27 µM; for `Cn1cc(C2(Cc3ccccc3)CCc3ccccc32)nc1N` (centres unmarked) [Example 3, 4-(1-benzyl-2,3-dihydro-1H-inden-1-yl)-1-methyl-1H-imidazol-2-amine]: 12 µM. With `COc1ccc2c(c1)CCC2(Cc1ccc(C(F)(F)F)nc1)c1cn(Cc2ccccc2)c(N)n1` (centres unmarked) [Example 114, 1-benzyl-4-(5-methoxy-1-{[6-(trifluoromethyl)pyridin-3-yl]methyl}-2,3-dihydro-1H-inden-1-yl)-1H-imidazol-2-amine], the IC50 was determined as 0.063 µM. Under `COc1ccc(C(Cc2ccc(-c3ccc(O)nc3)cc2)c2cn(C)c(N)n2)cc1` (centres unmarked) [Example 55, 5-{4-[2-(2-amino-1-methyl-1H-imidazol-4-yl)-2-(4-methoxyphenyl)ethyl]phenyl}pyridin-2-ol] stands 17 µM.

`COc1ccc2c(c1)CCC2(Cc1cc([N+](=O)[O-])ccc1OC)c1cn(C)c(N)n1` (centres unmarked) [Example 111, 4-[5-methoxy-1-(2-methoxy-5-nitrobenzyl)-2,3-dihydro-1H-inden-1-yl]-1-methyl-1H-imidazol-2-amine] showed an IC50 of 3.2 µM.

In the case of `COc1ccc2c(c1)CCC2(Cc1ccc(C(F)(F)F)nc1)c1cn(CCCO)c(N)n1` (centres unmarked) [Example 115, 3-[2-amino-4-(5-methoxy-1-{[6-(trifluoromethyl)pyridin-3-yl]methyl}-2,3-dihydro-1H-inden-1-yl)-1H-imidazol-1-yl]propan-1-ol], 3.3 µM corresponded to half-maximal inhibition (IC50).
